How the values were obtained:
[1] = tested on: Db/+ mice fed a high fructose diet; details: treated for 28 days; cited from earlier work
db/db mice = details: mouse, in vivo; cited from earlier work
[2] = tested on: HCV GT1b replicon cell line; type: cell-based; details: IFN-α
HCV replicon GT1b cells = test: Cytotoxicity in HCV replicon GT1b cells, Cell Titer Flo (Example 5); type: cell-based; details: 72 hours, IFN-α
[3] = tested on: HCV GT1b replicon cell line; test: Two-compound combination study in HCV GT1b replicon, MacSynergy II; type: cell-based
Protocol: The DMSO stocks of the compounds used in the single compound testing were also used in this analysis. Combination dilution matrixes were generated by POD-810 in 96-well assay microplates. The POD-810 system was used to generate 7-point, 2-fold serial dilutions in a matrix format.
The plates were incubated for 1 hour, and cell viability was measured on an Envision reader for cytotoxicity calculation. The liquid was then removed from the plates, after which 50 μL PBS and 50 μL firefly luciferase substrate solution were added to each well, after a 2-minute incubation period, chemiluminescence (for HCV replication calculation) was measured. The data were analyzed using MacSynergy™ II.

[4] = tested on: HCV GT1b replicon cell line; details: expected value, Table 10; IFN-α; cited from earlier work

In the case of CC12C[C@@]34C=CC(=O)[C@@](C)(CCC(=O)Nc5c(O)ccc(C(=O)O)c5O)C3[C@H](CC1C4)O2 (stereo partly drawn) [platensimycin], the Insulin sensitivity [1] is listed as “improved insulin sensitivity”, the Liver triglyceride levels [1] is listed as “reduced liver triglyceride levels” and the Ambient glucose levels (db/db mice) is listed as “reduced”.

For IFN-α, the “GT1b EC50 in dose ranging assay” value ([2]; Table 13) was 1.34 IU/mL, the “GT1b EC50” value ([2]; single compound, 72 hours) was 1.34 IU/mL and the “GT1b CC50” value (HCV replicon GT1b cells) was greater than 1000 IU/mL. For the same compound, the “GT1b EC50 of single dose in drug combination” value ([3]; individual compound in the combination matrix, IFN-α) was 3.43 IU/mL and the “GT1b Expected EC50” value [4] was 1 IU/mL.

In the case of Cc1ccc(C(=O)N2CCC(F)(c3ccc(C#N)cc3)CC2)cc1NC(=O)NC1CCCOC1 (stereo not drawn) [(V-K)], the “Combination antiviral effect (in words)” value ([3]; in combination with IFN-α, RBV, Compounds B, C, D, E) is reported as “additive antiviral activity”.
